According to PMC9804781, “Identification of a Novel Pseudo‐Natural Product Type IV IDO1 Inhibitor Chemotype” (Angewandte Chemie (International Ed. in English), 2022):
Read-outs that look alike come from different tables or passages of the source.

Tests used:
Type in all cases: cell-based
[1] = tested on: Kyn levels in HeLa cells; assay: Manual Kyn assay in HeLa cells (p-DMAB detection); settings: IFN-γ, L-Trp, compounds 48 h, p-DMAB, mean n=3 ±SD, read-out: Kyn Assay IC50
Procedure: Mammalian cell lines were maintained at 37°C and 5% CO2 in a humidified atmosphere and sub-cultivated twice a week. All cell lines were tested regularly for mycoplasma contamination and were always free of mycoplasma. BxPC-3 cells (DSMZ#760) were grown in RPMI-1640 medium supplemented with 10% FBS, 2 mM L-glutamine, 1 mM sodium pyruvate, 4.5 g/L glucose, 10 mM HEPES and 1.5 g/L NaHCO3. HeLa cells (DSMZ#57) were cultivated in DMEM supplemented with 10% FBS, 4.5 g/L glucose, 4 mM L-glutamine 1 mM sodium pyruvate, 1% non-essential amino acids, 3.7 g/L NaHCO3. SKOV-3 cells (ATCC#HTB-77) were maintained in modified McCoy’s 5A medium supplemented with 10% FBS, 1.5 mM L-glutamine and 2.2 g/L NaHCO3. […]
For manual testing, BxPC-3, HeLa or SKOV-3 cells (20,000 cells/well, 5,000 cells/well or 6,250 cells/well, respectively) were seeded in 96-well plates (BxPC-3 and HeLa) or 384-well plates (SKOV-3) in medium without phenol red. After 24 h, the IDO1 pathway was induced by addition of 50 ng/mL (BxPC-3 and HeLa) or 17.6 ng/mL IFN-γ (SKOV-3) and 380 µM (BxPC-3), 164.15 µM (HeLa) or 450 µM L-Trp (SKOV-3) with simultaneous treatment with the compounds at the indicated concentrations followed by incubation for 48 h. For the hemin competition assay, hemin was added together with IFN-γ, L-Trp and the compounds. Subsequently, trichloroacetic acid was added to a final concentration of 7% (v/v), the plates were incubated for 15 min at room […]
temperature and centrifuged for 10 min at 1800 x g. Afterwards, an equal volume of freshly prepared 2% (w/v) p-DMAB in glacial acetic acid (Ehrlich reagent) was added prior to measuring the absorbance at 492 nm and 650 nm on the Spark® Multimode Microplate Reader (Tecan, AT).
To determine the Kyn levels, the absorbance of the Kyn-p-DMAB adduct A492 was subtracted by the background absorbance A650 and normalized to the DMSO control. Data analysis was performed using a non-linear regression curve fit and GraphPad Prism 9.0 (GraphPad Software, Inc, US) to generate dose-response curves and obtain IC50 values. […]
Subsequently, 10 mM ascorbic acid, 10 μM methylene blue, 2 mM L-Trp and 100 μg/mL catalase were added and samples were incubated for 60 min at room temperature or 37°C. […]

[2] = tested on: L-Trp uptake in BxPC-3 cells; assay: Trp uptake assay in BxPC-3 cells (HPLC-MS/MS); settings: BxPC-3 starved for L-Trp 72 h, ±IFN-γ; 5 mM L-Leu, 1 mM 1-MT, 5 µM compound
Procedure: GraphPad Prism 9.0 (GraphPad Software, Inc, US) to generate dose-response curves and obtain […]
IDO1 promoter reporter gene assay
HEK293T cells (25,000 cells/well) were reverse-transfected with pXPG-IDO1[16] (4 µg/96-well plate, kindly provided by Gina M. Doody, Leeds, UK) and pRL-TK (300 ng/96-well plate, Promega, US) using Lipofectamine™ 2000 (Invitrogen, USA) pri or to incubation for 24 h. Afterwards, cells were treated with 50 ng/mL IFN-γ and the compounds for 48 h. Luminescence generated by the Fluc reporter and the control reporter Rluc was measured using the Dual-Glo ® Luciferase Assay System (Promega, US) on the Spark® Multimode Microplate Reader (Tecan, AT). To determine the IDO1 promoter activity, Fluc signals were divided by Rluc signals and normalized to the values of the DMSO control. Data analysis was performed using a non-linear regression curve fit and […]
BxPC-3 cells (30,000 cells/well) were seeded in 96-well plates in Trp-free RPMI 1640 medium and incubated for 48 h prior addition of 50 ng/mL IFN-γ. Trp starvation was continued for another 24 h. Afterwards, medium was exchanged for Trp-free medium containing the control inhibitors 5 mM L-Leu (inhibitor of system-L amino acid transporters (LAT)), 1 mM 1-methyl-L-tryptophan (inhibitor of tryptophanyl-tRNA synthetase (TrpRS)) and compounds and cells were incubated for 30 min. Subsequently, 50 µM L-Trp was added and samples were incubated for another 30 min.
The supernatant was transferred to a new plate, trichloroacetic acid was added to a final concentration of 7% (v/v) and plates were incubated for 15 min at room temperature. Samples were centrifuged for 10 min at 1800 x g and L-Trp was quantified by HPLC-MS/MS using the LTQ Velos Pro and Dionex HPLC (Thermo Fisher Scientific, US). Data analysis was performed with Xcalibur™ (Thermo Fisher Scientific, US) and repres ented using GraphPad Prism 9.0 (GraphPad […]
RNA purification and RT-qPCR
HeLa cells (250,000 cells/well) were seeded in 6-well plates and incubated for 24 h prior addition of 50 ng/mL IFN-γ and compounds. […]

[3] = tested on: Kyn levels in BxPC-3 cells; assay: Automated (high-throughput) Kyn assay in BxPC-3 cells (Kyn sensor); settings: Homo sapiens, BXPC-3; footnote e: value from automated Kyn Assay
Procedure: Mammalian cell lines were maintained at 37°C and 5% CO2 in a humidified atmosphere and sub-cultivated twice a week. All cell lines were tested regularly for mycoplasma contamination and were always free of mycoplasma. BxPC-3 cells (DSMZ#760) were grown in RPMI-1640 medium supplemented with 10% FBS, 2 mM L-glutamine, 1 mM sodium pyruvate, 4.5 g/L glucose, 10 mM […]
HEPES and 1.5 g/L NaHCO3. […]
High-throughput Kyn assay
Automated screening for modulators of Kyn levels in BxPC-3 cells was performed as published earlier.[2] Briefly, BxPC-3 cells (1,000 cells/well) were seeded in black 1536-well plates prior to incubation for 24 h and subsequent treatment with compounds, 380 µM L-Trp and 50 ng/mL IFN-γ for 48 h. Afterwards, trichloroacetic acid was added to a final concentration of 7% (v/v), the plates were incubated for 10 min at 37°C and centrifuged for 10 min at 1620 x g. Kyn was detected by addition of 17.5 µM Kyn sensor[14] in assay buffer (excitation: 535 nm, emission: […]

Row | SMILES | IC50 ([1]; Homo sapiens, HeLa, 48 h) [nM] | also measured
1 | CCOC(=O)C1=CC[C@@](C(=O)OC)(c2cc3ccccc3n2C)N(S(=O)(=O)c2ccccc2[N+](=O)[O-])[C@H]1C(=O)OCC [3a^a] | > 10000 | 
2 | COC(=O)[C@]1(c2cc3ccccc3n2C)CC=C(C(=O)OC(C)(C)C)[C@@H](C(=O)OC(C)(C)C)N1S(=O)(=O)c1ccccc1[N+](=O)[O-] [Compound 3o] |  | IC50 ([1]; listed as 3o^a): 820 ± 700 nM; IC50 ([1]; listed as 3o^b): 160 ± 50 nM; IC50 [1]: 650 ± 80 nM
3 | CC(C)C[C@H](N)C(=O)O [L-Leu, L-leucine] |  | uptake (import) of L-Trp [2]: inhibit the uptake
4 | CCOC(=O)[C@@H]1C(C(=O)OC(C)(C)C)=CC[C@](C(=O)OC)(c2cc3ccccc3n2C)N1S(=O)(=O)c1ccccc1[N+](=O)[O-] [Compound 3m] | 2460 ± 290 | 
5 | CCOC(=O)[C@@H]1C(C(=O)OC(C)(C)C)=CC[C@](C(=O)OC)(c2cc3ccccc3n2C)N1S(=O)(=O)c1ccc(C)cc1 [Compound 3j] | 760 ± 40 | 
6 | CCOC(=O)C1=CC[C@](C(=O)OC)(c2cc3ccccc3n2C)N(S(=O)(=O)c2ccccc2)[C@@H]1C(=O)OC(C)(C)C [Compound 3g] | 80 ± 10 | 
7 | CCOC(=O)C1=CC[C@H](c2cc3ccccc3n2C)N(S(=O)(=O)c2ccccc2[N+](=O)[O-])[C@@H]1C(=O)OC(C)(C)C [Compound 3c] |  | IC50 ([1]; listed as 3c^b): 480 ± 60 nM; IC50 [1]: 1040 ± 80 nM
8 | CCOC(=O)C1=CC[C@](C(=O)OC)(c2cc3ccccc3n2C)N(S(=O)(=O)c2ccccc2[N+](=O)[O-])[C@@H]1C(=O)OCc1ccccc1 [Compound 3n] | 7520 ± 800 | 
9 | CCOC(=O)C1=CC[C@](C(=O)OC)(c2cc3ccccc3n2C)N(S(=O)(=O)c2ccc(F)cc2)[C@@H]1C(=O)OC(C)(C)C [Compound 3q] | 110 ± 20 | 
10 | Cn1cc(C[C@H](N)C(=O)O)c2ccccc21 [Compound 1-MT, 1-methyl-L-tryptophan] |  | uptake (import) of L-Trp [2]: inhibit the uptake
11 | COC(=O)[C@]1(c2cc3ccccc3n2C)CC=C(C(=O)OCc2ccccc2)[C@@H](C(=O)OC(C)(C)C)N1S(=O)(=O)c1ccc(C)cc1 [Compound 3p] | 1650 ± 230 | 
12 | CCOC(=O)C1=CC[C@](C(=O)OC)(c2cc3ccccc3n2C)N(S(C)(=O)=O)[C@@H]1C(=O)OC(C)(C)C [Compound 3f] | 80 ± 10 | IC50 ([1]; listed as 3f^bc): 90 ± 10 nM
13 | COC(=O)[C@]1(c2cc3ccccc3n2C)CC=C(C(=O)OCc2ccccc2)[C@@H](C(=O)OC(C)(C)C)N1S(=O)(=O)c1ccccc1[N+](=O)[O-] [Compound 3l] |  | IC50 ([1]; listed as 3l^a): 2880 ± 130 nM; IC50 [1]: 1390 ± 90 nM
14 | CCOC(=O)[C@@H]1C(C(=O)OC(C)(C)C)=CC[C@H](c2cc3ccccc3n2C)N1S(=O)(=O)c1ccc(C)cc1 [Compound 3k] | 1630 ± 160 | 
15 | CCOC(=O)C1=CC[C@H](c2cc3ccccc3n2C)N(S(=O)(=O)c2ccc(C)cc2)[C@@H]1C(=O)OC(C)(C)C [3e^e] |  | IC50 [3]: 260 ± 50 nM
16 | CCOC(=O)C1=CC[C@](C(=O)OC)(c2cc3ccccc3n2C)N(S(=O)(=O)c2ccc(Br)cc2)[C@@H]1C(=O)OC(C)(C)C [Compound 3h] | 430 ± 150 | 
17 | Cn1c([C@H]2CC=C(C(=O)OCc3ccccc3)[C@@H](C(=O)OC(C)(C)C)N2S(=O)(=O)c2ccccc2[N+](=O)[O-])cc2ccccc21 [Compound 3r] | 890 ± 190 | 
18 | CCOC(=O)C1=CC[C@](C(=O)OC)(c2cc3ccccc3n2C)N(S(=O)(=O)c2cccc(C(F)(F)F)c2)[C@@H]1C(=O)OC(C)(C)C [Compound 3i] | 1540 ± 410 | 
